For assay [1], the target named is T1, dopamine-β-hydroxylase (DBH) (Homo sapiens, UniProt P09172).
T1 sequence (P09172 1-617): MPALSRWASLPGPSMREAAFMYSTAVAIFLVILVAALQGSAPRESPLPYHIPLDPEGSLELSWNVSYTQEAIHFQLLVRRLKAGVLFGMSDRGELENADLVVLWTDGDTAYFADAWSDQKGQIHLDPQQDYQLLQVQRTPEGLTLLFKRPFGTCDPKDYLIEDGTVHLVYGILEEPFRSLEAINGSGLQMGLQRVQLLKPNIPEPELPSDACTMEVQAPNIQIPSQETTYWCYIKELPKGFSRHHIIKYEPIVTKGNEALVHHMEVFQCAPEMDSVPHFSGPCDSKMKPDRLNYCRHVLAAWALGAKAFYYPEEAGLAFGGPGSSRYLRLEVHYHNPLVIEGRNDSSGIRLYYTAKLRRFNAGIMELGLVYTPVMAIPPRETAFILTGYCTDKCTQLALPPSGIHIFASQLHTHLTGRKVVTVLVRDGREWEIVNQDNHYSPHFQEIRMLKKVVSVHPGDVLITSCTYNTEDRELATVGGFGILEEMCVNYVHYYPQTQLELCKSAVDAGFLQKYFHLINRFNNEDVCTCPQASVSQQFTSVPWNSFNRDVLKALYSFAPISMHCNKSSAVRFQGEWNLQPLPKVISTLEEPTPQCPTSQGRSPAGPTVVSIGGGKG
Kind of assay: in vitro DBH inhibition, conversion of tyramine to octopamine in the presence of DBH. It counts as biochemical. As to the method: Listed in Table I are the compounds of the invention that were tested for in vitro DBH inhibition by a standard procedure for assaying conversion of tyramine to octopamine in the presence of DBH. J. J. Pisano, et al., Biochem. Biophys, Acta, 43, 566-568 (1960). Octopamine was assayed following sodium periodate oxidation to p-hydroxybenzaldehyde by measuring spectrophotometric absorbance at 330 nm. In Table I, inhibition is given in micromolar concentration of compound at which DBH activity was halved (IC₅₀).

For assay [2], the system named is spontaneously hypertensive rats. The experiment in a line: mean arterial blood pressure in spontaneously hypertensive rats. In kind it is in vivo. The following applies: 50 mg/kg intraperitoneally, compared to vehicle-treated controls, approximate. As for the experimental part:
Further, spontaneously hypertensive rats were treated with a suspension or solution of 1-(2-furanylmethyl)imidazole-2-thiol at a dose of 50 mg/kg intraperitoneally, and mean arterial blood pressure was monitored for 260 minutes using indwelling cannulae in the tail arteries. […] Maximal blood pressure reduction was approximately 50 to 55 mm Hg.

Setting [3] is: concentration of compound at which DBH activity was halved, tyramine to octopamine, absorbance at 330 nm, read-out: DBH IC50.

pIC50: −log10 of the molar value. Where two headings read alike, the source gives them in different places. A value given as a limit tells only on which side of the number the result lay.

The text below walks through data of EP0285356A2, “Dopamine-beta-hydroxylase inhibitors” (SMITHKLINE BECKMAN CORPORATION, priority 1987, dated 1988).

For orientation: pIC50 means the negative decadic logarithm of the IC50, by convention in mol/L. For the molecule `Sc1nccn1Cc1ccco1` [1-(2-furanylmethyl)imidazole-2-thiol], in assay [1] (setting [3]), the pIC50 was 4.25. For the same molecule, the “time after treatment to significant blood pressure reductions” value in assay [2] was at most 30 min.

In the case of `Sc1nccn1Cc1ccoc1` [1-(3-furanylmethyl)imidazole-2-thiol], the pIC50 in assay [1] (setting [3]) is 4.44.

For `CCCCc1ccc(C(=O)O)nc1` [fusaric acid, reference compound], the pIC50 in assay [1] was 6.10.
